We go through 24 compounds from US12324802B2, “Modulators of cystic fibrosis transmembrane conductance regulator” (Vertex Pharmaceuticals Incorporated, priority 2020, dated 2025).

Where two headings read alike, the source gives them in different places.

`CC(=O)OC1C=CC[C@](OCc2ccccc2)(C(F)(F)F)C2=NN=C(O2)c2nc(c(C(F)(F)F)cc2[N+](=O)[O-])NC(C)(C)C1` (mixture of isomers) gave a ring closure, isolated yield (from C=CC[C@@](OCc1ccccc1)(c1nnc(-c2nc(NC(C)(C)CC(C=C)OC(C)=O)c(C(F)(F)F)cc2[N+](=O)[O-])o1)C(F)(F)F, rcm bond, 14-membered ring, Zhan catalyst-1B, toluene, 10.6 mM, 110.0 °C, 19.0 h) of 20%. `CC(C)(C)OC(=O)N(C(=O)OC(C)(C)C)c1cc(C(F)(F)F)c2nc1-c1nnc(o1)[C@@](OCc1ccccc1)(C(F)(F)F)CCC=CCC(c1ccccn1)N2` (mixture of isomers) came in with a ring closure, isolated yield (from C=CCC[C@@](OCc1ccccc1)(c1nnc(-c2nc(NC(CC=C)c3ccccn3)c(C(F)(F)F)cc2N(C(=O)OC(C)(C)C)C(=O)OC(C)(C)C)o1)C(F)(F)F, rcm bond, 14-membered ring, Zhan catalyst-1B, DCE, 1.5 mM, 85.0 °C, 12.0 h) of 24%. On to `CC(C)(C)OC(=O)Nc1cc(C(F)(F)F)c2nc1-c1nnc(o1)C(OCc1ccccc1)(C(F)(F)F)CC=CC[C@@H]1CCCN21` (mixture of isomers), for which the ring closure, isolated yield (from C=CC[C@@H]1CCCN1c1nc(-c2nnc(C(CC=C)(OCc3ccccc3)C(F)(F)F)o2)c(NC(=O)OC(C)(C)C)cc1C(F)(F)F, rcm bond, 13-membered ring, Zhan-1B (two charges), DCE, 6.47 mM, 80.0 °C, 36.0 h) was 6.5%.

The compound `CC(C)(C)OC(=O)Nc1cc(C(F)(F)F)c2nc1-c1nnc(o1)[C@@](O)(C(F)(F)F)c1cc(ccc1F)C=CC[C@@H]1CCCN21` (mixture of isomers) gave a ring closure, isolated yield (from C=CC[C@@H]1CCCN1c1nc(-c2nnc([C@](O)(c3cc(I)ccc3F)C(F)(F)F)o2)c(NC(=O)OC(C)(C)C)cc1C(F)(F)F, cc_pd bond, 15-membered ring, Pd(OAc)2/P(o-tol)3/Et3N, MeCN, 9.5 mM, 80.0 °C, 22.0 h) of 58%. Compound `CC(C)(C)OC(=O)Nc1cc(C(F)(F)F)c2nc1-c1nnc(o1)[C@@](OCc1ccccc1)(C(F)(F)F)CCC=CCC(C(=O)N1CCCC1)N2` (mixture of isomers) returned a ring closure, isolated yield (from C=CCC[C@@](OCc1ccccc1)(c1nnc(-c2nc(NC(CC=C)C(=O)N3CCCC3)c(C(F)(F)F)cc2NC(=O)OC(C)(C)C)o1)C(F)(F)F, rcm bond, 14-membered ring, Zhan catalyst-1B, DCE, 1.4 mM, 75.0 °C, 2.0 h) of 66%. `CC(C)(C)OC(=O)Nc1cc(C(F)(F)F)c2nc1-c1nnc(o1)[C@](O)(C(F)(F)F)c1cc(ccc1F)C=CC[C@@H]1CCCN21` (mixture of isomers) gave a ring closure, isolated yield (from C=CC[C@@H]1CCCN1c1nc(-c2nnc([C@@](O)(c3cc(I)ccc3F)C(F)(F)F)o2)c(NC(=O)OC(C)(C)C)cc1C(F)(F)F, cc_pd bond, 15-membered ring, Pd(OAc)2/P(o-tol)3/Et3N, MeCN, 9.5 mM, 80.0 °C, 22.0 h) of 56%. `CC(C)N1CCC=CCCC(OCc2ccccc2)(C(F)(F)F)C2=NN=C(O2)c2nc1c(C(F)(F)F)cc2[N+](=O)[O-]` (mixture of isomers): the ring closure, isolated yield (from C=CCCN(c1nc(-c2nnc(C(CCC=C)(OCc3ccccc3)C(F)(F)F)o2)c([N+](=O)[O-])cc1C(F)(F)F)C(C)C, rcm bond, 14-membered ring, Zhan-1B, DCE, 2.53 mM, 75.0 °C, 3.0 h) is 84%. On to `CC1(C)CC=CCC[C@](OCc2ccccc2)(C(F)(F)F)C2=NN=C(O2)c2nc(c(C(F)(F)F)cc2[N+](=O)[O-])N1` (mixture of isomers), for which the ring closure, isolated yield (from [2H]C([2H])([2H])C(CC=C)(Nc1nc(-c2nnc([C@@](CCC=C)(OCc3ccccc3)C(F)(F)F)o2)c([N+](=O)[O-])cc1C(F)(F)F)C([2H])([2H])[2H], rcm bond, 14-membered ring, Zhan catalyst-1B, DCE, 11.0 mM, 75.0 °C, 3.0 h) came to 37.8%.

In the case of `CC1(COCc2ccccc2)CC=CCC[C@](OCc2ccccc2)(C(F)(F)F)C2=NN=C(O2)c2nc(c(C(F)(F)F)cc2[N+](=O)[O-])N1` (mixture of isomers), where the note is “from C=CCC[C@@](OCc1ccccc1)(c1nnc(-c2nc(NC(C)(CC=C)COCc3ccccc3)c(C(F)(F)F)cc2[N+](=O)[O-])o1)C(F)(F)F, rcm bond, 14-membered ring, Zhan catalyst-1B, DCE, 2.83 mM, 60.0 °C, 3.17 h”, the ring closure, isolated yield stood at 75%.

In the case of `CCOC(=O)CN1CCC=CCCC(OCc2ccccc2)(C(F)(F)F)C2=NN=C(O2)c2nc1c(C(F)(F)F)cc2N(C(=O)OC(C)(C)C)C(=O)OC(C)(C)C` (mixture of isomers), the ring closure, isolated yield (from C=CCCN(CC(=O)OCC)c1nc(-c2nnc(C(CCC=C)(OCc3ccccc3)C(F)(F)F)o2)c(N(C(=O)OC(C)(C)C)C(=O)OC(C)(C)C)cc1C(F)(F)F, rcm bond, 14-membered ring, Zhan-1B, DCE, 2.3 mM, 75.0 °C, 2.0 h) was 92%. For `CN1CCC=CCCC(OCc2ccccc2)(C(F)(F)F)C2=NN=C(O2)c2nc1c(C(F)(F)F)cc2NC(=O)OC(C)(C)C` (mixture of isomers), the ring closure, isolated yield (from C=CCCN(C)c1nc(-c2nnc(C(CCC=C)(OCc3ccccc3)C(F)(F)F)o2)c(NC(=O)OC(C)(C)C)cc1C(F)(F)F, rcm bond, 14-membered ring, Zhan-1B (15 mol%), DCE, 6.34 mM, 70.0 °C, 2.0 h) stood at 76%.

In turn, `CN1CCC=CCCC(OCc2ccccc2)(C(F)(F)F)C2=NN=C(O2)c2nc1c(S(C)(=O)=O)cc2NC(=O)OC(C)(C)C` (mixture of isomers) had a ring closure, isolated yield (from C=CCCN(C)c1nc(-c2nnc(C(CCC=C)(OCc3ccccc3)C(F)(F)F)o2)c(NC(=O)OC(C)(C)C)cc1S(C)(=O)=O, rcm bond, 14-membered ring, Zhan-1B (two charges), DCE, 4.01 mM, 70.0 °C, 14.0 h) of 41%. As for `COCCN1CCC=CCCC(OCc2ccccc2)(C(F)(F)F)C2=NN=C(O2)c2nc1c(C(F)(F)F)cc2NC(=O)OC(C)(C)C` (mixture of isomers), the ring closure, isolated yield (from C=CCCN(CCOC)c1nc(-c2nnc(C(CCC=C)(OCc3ccccc3)C(F)(F)F)o2)c(NC(=O)OC(C)(C)C)cc1C(F)(F)F, rcm bond, 14-membered ring, Zhan-1B (19 mol%), DCE, 3.22 mM, 70.0 °C, 3.0 h) was 60%. Take `O=C1NNC(=O)[C@@](OCc2ccccc2)(C(F)(F)F)CCC=CCC2(CCCCC2)Nc2nc1c([N+](=O)[O-])cc2C(F)(F)F` (mixture of isomers): the ring closure, isolated yield (from C=CCC[C@@](OCc1ccccc1)(C(=O)NNC(=O)c1nc(NC2(CC=C)CCCCC2)c(C(F)(F)F)cc1[N+](=O)[O-])C(F)(F)F, rcm bond, 15-membered ring, Zhan catalyst-1B, DCE, 4.99 mM, 60.0 °C, 2.0 h) is 70%.

Turning to `O=[N+]([O-])c1cc(C(F)(F)F)c2nc1-c1nnc(o1)-c1c(cccc1OCc1ccccc1)CC=CC[C@@H]1CCCN21` (mixture of isomers), the ring closure, isolated yield (from C=CCc1cccc(OCc2ccccc2)c1-c1nnc(-c2nc(N3CCC[C@H]3CC=C)c(C(F)(F)F)cc2[N+](=O)[O-])o1, rcm bond, 14-membered ring, Zhan-1B, DCE, 7.24 mM, 70.0 °C, 5.0 h) was found to be 26%. For the compound `O=[N+]([O-])c1cc(C(F)(F)F)c2nc1-c1nnc(o1)C(OCc1ccccc1)(C(F)(F)F)CCC=CCCN2CCOCc1ccccc1` (mixture of isomers), the ring closure, isolated yield (from C=CCCN(CCOCc1ccccc1)c1nc(-c2nnc(C(CCC=C)(OCc3ccccc3)C(F)(F)F)o2)c([N+](=O)[O-])cc1C(F)(F)F, rcm bond, 14-membered ring, Zhan-1B (25 mol%), DCE, 2.75 mM, 75.0 °C, 2.0 h) was determined as 59%. `O=[N+]([O-])c1cc(C(F)(F)F)c2nc1-c1nnc(o1)C(OCc1ccccc1)(C(F)(F)F)CCC=CCCN2Cc1ccccc1` (mixture of isomers) gave a ring closure, isolated yield (from C=CCCN(Cc1ccccc1)c1nc(-c2nnc(C(CCC=C)(OCc3ccccc3)C(F)(F)F)o2)c([N+](=O)[O-])cc1C(F)(F)F, rcm bond, 14-membered ring, Zhan-1B, DCE, 1.77 mM, 75.0 °C, 3.0 h) of 68%.

Regarding `O=[N+]([O-])c1cc(C(F)(F)F)c2nc1-c1nnc(o1)[C@@](OCc1ccccc1)(C(F)(F)F)CCC=CCC(Cc1ccccc1)N2` (mixture of isomers), where the note is “from C=CCC[C@@](OCc1ccccc1)(c1nnc(-c2nc(NC(CC=C)Cc3ccccc3)c(C(F)(F)F)cc2[N+](=O)[O-])o1)C(F)(F)F, rcm bond, 14-membered ring, Zhan catalyst-1B, DCE, 9.18 mM, 75.0 °C, 2.0 h”, the ring closure, isolated yield worked out at 19%. `O=[N+]([O-])c1cc(C(F)(F)F)c2nc1-c1nnc(o1)[C@@](OCc1ccccc1)(C(F)(F)F)CCC=CCC(c1ncccn1)N2` (mixture of isomers): the ring closure, isolated yield (from C=CCC[C@@](OCc1ccccc1)(c1nnc(-c2nc(NC(CC=C)c3ncccn3)c(C(F)(F)F)cc2[N+](=O)[O-])o1)C(F)(F)F, rcm bond, 14-membered ring, Zhan catalyst-1B, DCE, 2.66 mM, 83.0 °C, 16.0 h) came out at 49%. Compound `O=[N+]([O-])c1cc(C(F)(F)F)c2nc1-c1nnc(o1)[C@@](OCc1ccccc1)(C(F)(F)F)CCC=CCC1(CCC1)N2` (mixture of isomers) showed a ring closure, isolated yield (from C=CCC[C@@](OCc1ccccc1)(c1nnc(-c2nc(NC3(CC=C)CCC3)c(C(F)(F)F)cc2[N+](=O)[O-])o1)C(F)(F)F, rcm bond, 14-membered ring, Zhan catalyst-1B, DCE, 3.27 mM, 85.0 °C, 5.0 h) of 68%. As for `O=[N+]([O-])c1cc(C(F)(F)F)c2nc1-c1nnc(o1)[C@@](OCc1ccccc1)(C(F)(F)F)CCC=CCC1(CCCC1)N2` (mixture of isomers), the ring closure, isolated yield (from C=CCC[C@@](OCc1ccccc1)(c1nnc(-c2nc(NC3(CC=C)CCCC3)c(C(F)(F)F)cc2[N+](=O)[O-])o1)C(F)(F)F, rcm bond, 14-membered ring, Zhan catalyst-1B, DCE, 6.3 mM, 70.0 °C, 2.5 h) is 27%. Consider `O=[N+]([O-])c1cc(C(F)(F)F)c2nc1-c1nnc(o1)[C@@](OCc1ccccc1)(C(F)(F)F)CCC=CCC1(CCOC1)N2` (mixture of isomers), for which the ring closure, isolated yield (from C=CCC[C@@](OCc1ccccc1)(c1nnc(-c2nc(NC3(CC=C)CCOC3)c(C(F)(F)F)cc2[N+](=O)[O-])o1)C(F)(F)F, rcm bond, 14-membered ring, Zhan catalyst-1B, DCE, 3.17 mM, 60.0 °C, 3.75 h) came out at 82%. Under “from C=CCC[C@@](OCc1ccccc1)(c1nnc(-c2nc(NC3(CC=C)CCOCC3)c(C(F)(F)F)cc2[N+](=O)[O-])o1)C(F)(F)F, rcm bond, 14-membered ring, Zhan catalyst-1B, DCE, 3.13 mM, 60.0 °C, 3.75 h”, `O=[N+]([O-])c1cc(C(F)(F)F)c2nc1-c1nnc(o1)[C@@](OCc1ccccc1)(C(F)(F)F)CCC=CCC1(CCOCC1)N2` (mixture of isomers) came in with a ring closure, isolated yield of 80%. Take “(6R)-6-benzyloxy-17-(tert-butoxycarbonylamino)-6,15-bis(trifluoromethyl)-19-oxa-3,4,13,18-tetrazatricyclo[12.3.1.12,5]nonadeca-1(17),2,4,9,14(18),15-hexaene-12-carboxylic acid (E/Z mixture)”: the ring closure, isolated yield (rcm bond, 14-membered ring, Zhan catalyst-1B, then LiOH, DCE, 0.99 mM, 75.0 °C, 2 steps) was found to be 21%.
